Laboratory results from patent US11040031B2, “Pyrazole derivatives as MALT1 inhibitors” (Janssen Pharmaceutica NV, priority 2018, dated 2021).
Where two headings read alike, the source gives them in different places.

Experiments:
[1] = biological target: T1, full-length MALT1 protein (Strep-MALT1(1-824)-His) (Homo sapiens, UniProt Q9UDY8); test: biochemical;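 also: fluorogenic LRSR-AMC substrate cleavage by MALT1, 50 min compound preincubation then 4 h reaction at RT, 11-point dilution from 30 µM, scaled between enzyme-free and untreated enzyme controls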
T1 sequence (Q9UDY8 1-824): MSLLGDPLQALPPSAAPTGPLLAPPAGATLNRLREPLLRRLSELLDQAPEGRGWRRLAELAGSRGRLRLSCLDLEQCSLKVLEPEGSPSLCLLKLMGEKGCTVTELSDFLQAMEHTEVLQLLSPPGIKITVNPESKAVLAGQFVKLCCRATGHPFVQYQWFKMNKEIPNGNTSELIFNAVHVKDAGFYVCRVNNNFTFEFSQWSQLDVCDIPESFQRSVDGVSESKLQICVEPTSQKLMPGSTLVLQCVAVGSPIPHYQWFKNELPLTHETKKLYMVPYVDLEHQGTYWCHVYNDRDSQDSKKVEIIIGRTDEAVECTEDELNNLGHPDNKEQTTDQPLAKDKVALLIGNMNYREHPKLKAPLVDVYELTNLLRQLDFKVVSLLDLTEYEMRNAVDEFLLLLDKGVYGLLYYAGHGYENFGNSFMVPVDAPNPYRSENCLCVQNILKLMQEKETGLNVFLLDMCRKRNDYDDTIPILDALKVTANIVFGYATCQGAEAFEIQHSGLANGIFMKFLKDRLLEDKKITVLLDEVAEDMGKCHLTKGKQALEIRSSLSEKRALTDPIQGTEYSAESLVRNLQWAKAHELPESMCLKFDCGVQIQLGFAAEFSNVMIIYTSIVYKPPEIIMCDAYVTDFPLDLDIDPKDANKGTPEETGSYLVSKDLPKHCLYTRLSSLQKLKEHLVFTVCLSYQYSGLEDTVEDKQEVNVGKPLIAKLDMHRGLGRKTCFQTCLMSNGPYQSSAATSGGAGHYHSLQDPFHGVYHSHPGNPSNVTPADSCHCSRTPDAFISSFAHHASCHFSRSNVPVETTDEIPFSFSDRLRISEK
Method: MALT1 protease activity was assessed in an in vitro assay using a tetrapeptide as substrate and full-length MALT1 protein (Strep-MALT1(1-824)-His) purified from baculovirus-infected insect cells. The tetrapeptide LRSR is coupled to AMC (7-amino-4-methylcoumarin) and provides a quenched, fluorescent substrate for the MALT1 protease (SM Biochemicals). Cleavage of AMC from the Arginine residue results in an increase in coumarin fluorescence measured at 460 nm (excitation 355 nm). […] Test compounds were spotted at 50 nL in 100% DMSO per well of a black 384-Proxiplate (Perkin Elmer). Test compound concentrations ranged from 30 μM to 0.5 nM using 11 dilution steps (1:3). Background signal was measured from control wells containing assay buffer without enzyme which functions as low control (LC). High control (HC) values were generated using the reaction with enzyme but no compound treatment. Compounds were pre-incubated with MALT1 enzyme for 50 minutes at RT. Substrate was added subsequently and fluorescence was measured in Labsystems fluoroskan at excitation 355 nm and emission 460 nm to determine time 0. The reaction was subsequently incubated for 4 h at RT and fluorescence was measured. […] The enzyme reaction was linear during the 4 h incubation period.
IC50 values were calculated using the following formula (Z prime should be >0.5):
From this an IC50 value (inhibitory concentration causing 50% inhibition) can be obtained. An estimate of the slope of the plot in terms of the Hill coefficient was also obtained.
With y=estimated response • UB=upper bound • LB=lower bound • h=hill

[2] = system: OCI-Ly3 ABC-DLBCL cell line; test: 4-day proliferation assay OCI-Ly3; type: cell-based; details: Homo sapiens, read-out: Anti-proliferation: OCI-LY-3 IC50
Method: To assess anti-proliferative effects, MALT1 inhibitor test compounds were tested in 4-day proliferation assays using three different DLBCL cell lines.
Cells should be kept between 0.5-2.5 million cells per mL during culturing and cells should be supplemented every 2-3 days with fresh 50 μM beta-mercaptoenthanol. No beta-mercaptoethanol is used during the proliferation assay. OCI-Ly7 cells were propagated in IMDM (ThermoFisher) supplemented with 10% fetal bovine serum (HyClone), 2 mM L-glutamine (Sigma Aldrich) and 50 μg/mL Gentamycin. Cell passage numbers should not exceed 30.
10,000 TMD8, 10,000 OCI-Ly3 or 2,000 OCI-Ly7 cells were seeded in 100 μL media per well and incubated for 4 days at 37° C. and 5% CO2. Cell plating numbers were chosen based on growth curves to ensure linear cell growth. After 4 days of incubation 50 μl CellTiterGLO reagent (Promega) were added to each well and luminescence was measured on the Envision after 10 min of incubation at room temperature.

[3] = system: Secretion of IL10 by OCI-LY3 ABC-DLBCL cells; test: Human IL10 Mesoscale assay (OCI-LY3); type: cell-based; details: read-out: Human IL10 Mesoscale assay (OCI-LY3)
In short: (§1)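 TMD8 or OCI-LY3 ABC-DLBCL cells incubated with compound 24 h at 37° C without beta-mercaptoethanol. Secreted IL6 and IL10 in supernatant quantified by MSD electrochemiluminescence immunoassay; DMSO wells define maximum signal.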

[4] = system: Secretion of IL6 by OCI-LY3 ABC-DLBCL cells; test: Human IL6 Mesoscale assay (OCI-LY3); type: cell-based; details: read-out: Human IL6 Mesoscale assay (OCI-LY3)
In short: as §1

[5] = 96 h, 10,000 OCI-Ly3 cells per well, 4 days, CellTiterGLO
[6] = OCI-LY3 cells, 24 h incubation, supernatant, MSD V-Plex

Structure (SMILES): N#Cc1cc(NC(=O)c2cnn(-c3ccc(F)cc3Br)c2C(F)(F)F)cnc1-n1nccn1 [Cpd 50, 1-(2-bromo-4-fluorophenyl)-N-(5-cyano-6-(2H-1,2,3-triazol-2-yl)pyridin-3-yl)-5-(trifluoromethyl)-1H-pyrazole-4-carboxamide]
- IC50 [1]: 54 nM
- IC50 [2, 5]: 1070 nM

Structure (SMILES): N#Cc1cc(NC(=O)c2cnn(-c3ccc(F)cc3Cl)c2C(F)(F)F)cnc1-n1nccn1 [Cpd 51, 1-(2-chloro-4-fluorophenyl)-N-(5-cyano-6-(2H-1,2,3-triazol-2-yl)pyridin-3-yl)-5-(trifluoromethyl)-1H-pyrazole-4-carboxamide]
- IC50 [3, 6]: 71 nM
- IC50 [1]: 54 nM
- IC50 [4, 6]: 98 nM
- IC50 [2, 5]: 851 nM

Structure (SMILES): O=C(Nc1cnc(-n2nccn2)c(Cl)c1)c1cnn(-c2ccnc3c2OCO3)c1C(F)(F)F [Cpd 52, 1-([1,3]dioxolo[4,5-b]pyridin-7-yl)-N-(5-chloro-6-(2H-1,2,3-triazol-2-yl)pyridin-3-yl)-5-(trifluoromethyl)-1H-pyrazole-4-carboxamide]
- IC50 [3, 6]: 56 nM
- IC50 [1]: 55 nM
- IC50 [4, 6]: 120 nM
- IC50 [2, 5]: 2400 nM

Structure (SMILES): COc1cc(F)ccc1-n1ncc(C(=O)Nc2cnc(-n3nccn3)c(C#N)c2)c1C(F)(F)F [Cpd 54, N-(5-cyano-6-(2H-1,2,3-triazol-2-yl)pyridin-3-yl)-1-(4-fluoro-2-methoxyphenyl)-5-(trifluoromethyl)-1H-pyrazole-4-carboxamide]
- IC50 [1]: 89 nM
- IC50 [2, 5]: 1620 nM

Structure (SMILES): Cc1ccccc1-n1ncc(C(=O)Nc2cnc(-n3nccn3)c(C#N)c2)c1C(F)(F)F [Cpd 55, N-(5-cyano-6-(2H-1,2,3-triazol-2-yl)pyridin-3-yl)-1-(o-tolyl)-5-(trifluoromethyl)-1H-pyrazole-4-carboxamide]
- IC50 [1]: 62 nM
- IC50 [2, 5]: 3390 nM

Structure (SMILES): N#Cc1cc(NC(=O)c2cnn(-c3ccnc(N)c3Cl)c2C(F)(F)F)cnc1-n1nccn1 [Cpd 56, 1-(2-amino-3-chloropyridin-4-yl)-N-(5-cyano-6-(2H-1,2,3-triazol-2-yl)pyridin-3-yl)-5-(trifluoromethyl)-1H-pyrazole-4-carboxamide]
- IC50 ([3]; OCI-Ly3, 24 h): 363 nM
- IC50 [1]: 78 nM
- IC50 ([4]; OCI-Ly3, 24 h): 389 nM
- IC50 ([2]; OCI-Ly3, 96 h): 5010 nM

Structure (SMILES): Nc1nccc(-n2ncc(C(=O)Nc3cnc(-n4nccn4)c(Cl)c3)c2C(F)(F)F)c1Cl [Cpd 57, 1-(2-amino-3-chloropyridin-4-yl)-N-(5-chloro-6-(2H-1,2,3-triazol-2-yl)pyridin-3-yl)-5-(trifluoromethyl)-1H-pyrazole-4-carboxamide]
- IC50 ([3]; OCI-Ly3, 24 h): 117 nM
- IC50 [1]: 107 nM
- IC50 ([4]; OCI-Ly3, 24 h): 162 nM
- IC50 ([2]; OCI-Ly3, 96 h): 1200 nM

Structure (SMILES): O=C(Nc1cnc(-n2nccn2)c(Cl)c1)c1cnn(-c2cccc3c2OC(F)(F)O3)c1C(F)(F)F [Cpd 58, N-(5-chloro-6-(2H-1,2,3-triazol-2-yl)pyridin-3-yl)-1-(2,2-difluorobenzo[d][1,3]dioxol-4-yl)-5-(trifluoromethyl)-1H-pyrazole-4-carboxamide]
- IC50 [3, 6]: 195 nM
- IC50 [1]: 145 nM
- IC50 [4, 6]: 407 nM
- IC50 [2, 5]: 7240 nM

Structure (SMILES): N#Cc1cc(NC(=O)c2cnn(-c3ccc(F)c(F)c3Cl)c2C(F)(F)F)cnc1-n1nccn1 [Cpd 60, 1-(2-chloro-3,4-difluorophenyl)-N-(5-cyano-6-(2H-1,2,3-triazol-2-yl)pyridin-3-yl)-5-(trifluoromethyl)-1H-pyrazole-4-carboxamide]
- IC50 [3, 6]: 151 nM
- IC50 [1]: 71 nM
- IC50 [4, 6]: 178 nM
- IC50 [2, 5]: 741 nM

Structure (SMILES): N#Cc1cc(NC(=O)c2cnn(-c3cccc(F)c3Cl)c2C(F)(F)F)cnc1-n1nccn1 [Cpd 61, 1-(2-chloro-3-fluorophenyl)-N-(5-cyano-6-(2H-1,2,3-triazol-2-yl)pyridin-3-yl)-5-(trifluoromethyl)-1H-pyrazole-4-carboxamide]
- IC50 [1]: 78 nM
- IC50 [2, 5]: 1860 nM

Structure (SMILES): Cc1cc(F)ccc1-n1ncc(C(=O)Nc2cnc(-n3nccn3)c(C#N)c2)c1C(F)(F)F [Cpd 64, N-(5-cyano-6-(2H-1,2,3-triazol-2-yl)pyridin-3-yl)-1-(4-fluoro-2-methylphenyl)-5-(trifluoromethyl)-1H-pyrazole-4-carboxamide]
- IC50 [1]: 54 nM
- IC50 [2, 5]: 1550 nM

Structure (SMILES): O=C(Nc1cnc(-n2nccn2)c(Cl)c1)c1cnn(-c2cccc(F)c2Cl)c1C(F)(F)F [Cpd 82, 1-(2-chloro-3-fluorophenyl)-N-(5-chloro-6-(2H-1,2,3-triazol-2-yl)pyridin-3-yl)-5-(trifluoromethyl)-1H-pyrazole-4-carboxamide]
- IC50 [1]: 162 nM
- IC50 [2, 5]: 3390 nM

Structure (SMILES): O=C(Nc1cnc(-n2nccn2)c(Cl)c1)c1cnn(-c2ccc(F)cc2Br)c1C(F)(F)F [Cpd 83, 1-(2-bromo-4-fluorophenyl)-N-(5-chloro-6-(2H-1,2,3-triazol-2-yl)pyridin-3-yl)-5-(trifluoromethyl)-1H-pyrazole-4-carboxamide]
- IC50 [1]: 129 nM
- IC50 [2, 5]: 2240 nM

Structure (SMILES): Cc1cc(F)cnc1-n1ncc(C(=O)Nc2cnc(-n3nccn3)c(Cl)c2)c1C(F)(F)F [Cpd 112, N-(5-chloro-6-(2H-1,2,3-triazol-2-yl)pyridin-3-yl)-1-(5-fluoro-3-methylpyridin-2-yl)-5-(trifluoromethyl)-1H-pyrazole-4-carboxamide]
- IC50 [1]: 457 nM
- IC50 ([2]; OCI-Ly3, 96 h): 724 nM

Structure (SMILES): O=C(Nc1cnc(-n2nccn2)c(Cl)c1)c1cnn(-c2ccc(F)cc2F)c1C(F)(F)F [Cpd 117, N-(5-chloro-6-(2H-1,2,3-triazol-2-yl)pyridin-3-yl)-1-(2,4-difluorophenyl)-5-(trifluoromethyl)-1H-pyrazole-4-carboxamide]
- IC50 [1]: 288 nM
- IC50 [2, 5]: 407 nM

Structure (SMILES): N#Cc1cc(NC(=O)c2cnn(-c3cccc4c3CCNC4)c2C(F)(F)F)cnc1-n1nccn1 [Cpd 129, N-(5-cyano-6-(2H-1,2,3-triazol-2-yl)pyridin-3-yl)-1-(1,2,3,4-tetrahydroisoquinolin-5-yl)-5-(trifluoromethyl)-1H-pyrazole-4-carboxamide]
- IC50 [1]: 2400 nM
- IC50 [2, 5]: 1410 nM

Structure (SMILES): CN1CCCc2cccc(-n3ncc(C(=O)Nc4cnc(-n5nccn5)c(C#N)c4)c3C(F)(F)F)c21 [Cpd 131, N-(5-cyano-6-(2H-1,2,3-triazol-2-yl)pyridin-3-yl)-1-(1-methyl-1,2,3,4-tetrahydroquinolin-8-yl)-5-(trifluoromethyl)-1H-pyrazole-4-carboxamide]
- IC50 [1]: 776 nM
- IC50 [2, 5]: 19100 nM

Structure (SMILES): O=C1NCc2c1cccc2-n1ncc(C(=O)Nc2cnc(-n3nccn3)c(Cl)c2)c1C(F)(F)F [Cpd 133, N-(5-chloro-6-(2H-1,2,3-triazol-2-yl)pyridin-3-yl)-1-(1-oxoisoindolin-4-yl)-5-(trifluoromethyl)-1H-pyrazole-4-carboxamide]
- IC50 [1]: 155 nM
- IC50 [2, 5]: 5500 nM

Structure (SMILES): Cc1cc(-n2nccn2)c(C#N)cc1NC(=O)c1cnn(-c2ccc(F)c(N)n2)c1C(F)(F)F [Cpd 195, 1-(6-amino-5-fluoropyridin-2-yl)-N-(5-cyano-2-methyl-4-(2H-1,2,3-triazol-2-yl)phenyl)-5-(trifluoromethyl)-1H-pyrazole-4-carboxamide]
- IC50 ([3]; OCI-Ly3, 24 h): 1860 nM
- IC50 [1]: 1200 nM
- IC50 ([4]; OCI-Ly3, 24 h): 5370 nM

Structure (SMILES): Cc1nc(-n2nccn2)c(C#N)cc1NC(=O)c1cnn(-c2ccc(Cl)c(N)n2)c1C(F)(F)F [Cpd 200, 1-(6-amino-5-chloropyridin-2-yl)-N-(5-cyano-2-methyl-6-(2H-1,2,3-triazol-2-yl)pyridin-3-yl)-5-(trifluoromethyl)-1H-pyrazole-4-carboxamide]
- IC50 [3, 6]: 245 nM
- IC50 [1]: 275 nM
- IC50 [4, 6]: 794 nM
